Measurements from patent US4294845A, “1,3-Benzodioxin derivatives” (priority 1978, dated 1981).

Columns and labels:
[1] = Acute toxicity in mice (intraperitoneal, DL50); format: in vivo; settings: mouse, in vivo, ip, observed for one week
Procedure: (§1) The acute toxicity was determined on groups of 5 mice weighing about 18 to 22 g and the test products were intraperitoneally administered in suspension in an aqueous carboxymethylcellulose.

[2] = tested on: levels of triglycerides, cholesterol and total lipids; test: Hypolipemiant activity: plasma lipid levels in rats on a saccharose and cholesterol-rich regime, 10 days treatment; format: in vivo, male rats of the Sprague Dawley S.P.F. strain; settings: esophague tube, vs untreated controls
Procedure: This test was effected on groups of 8 male rats of the Sprague Dawley S.P.F. strain weighing about 200 g and the animals received a regime containing 50% of saccharose and which was rich in cholesterol (1%). The rats were treated over 10 days with the test products which were administered through an esophague tube as a suspension in water containing carboxymethylcellulose. The animals were killed 16 hours after the last administration of the test product by an abdominal puncture and from the blood sample with sodium heparinate, the levels of triglycerides, cholesterol and total lipids were determined by the following methods.
The triglyceride level was determined by the semi-automatic technique of Kessler et al [Automation in Analytical Chemistry, 1965, p. 341] modified by Claude et al [Ann. Biol. Clin., Vol. 26 3-4 (1968), p. 451]. The cholesterol levels were determined by the technique of Levine [Symposium Technicon, Vol. I. (1967), p. 25] adapted to auto-analyzer system I. The nephelometric level of total lipids was determined semi-automatically by the method of Girard et al [Symposium Technicon, 1970]. The variations expressed in percentages of the level of triglycerides, cholesterol and total lipids after administration of the various dosage of the test products in the treated animals as compared to the untreated controls and the results are reported in Table I.

mice = test: Acute toxicity in mice (intraperitoneal, DL50); format: in vivo; settings: observed for one week, 10080 min
Procedure: as §1

Row | Compound | LD50 at 168 h [1] | % Variation of levels, Cholesterol ([2]; 2 mg/kg/day) | % Variation of levels, Total Lipids ([2]; 2 mg/kg/day) | % Variation of levels, Triglycerides ([2]; 2 mg/kg/day) | % Variation of levels, Cholesterol ([2]; 1 mg/kg/day) | % Variation of levels, Total Lipids ([2]; 1 mg/kg/day) | % Variation of levels, Triglycerides ([2]; 1 mg/kg/day) | % Variation of levels, Cholesterol ([2]; 5 mg/kg/day) | % Variation of levels, Total Lipids ([2]; 5 mg/kg/day) | % Variation of levels, Triglycerides ([2]; 5 mg/kg/day) | DL50 (mice)
1 | CC1(c2ccccc2)OC(C(=O)O)Oc2ccc(Cl)cc21 (single isomer, unassigned) [18 Isomer A 1 form] | ~250 mg/kg | -47% | -53% | -53% | – | – | – | – | – | – | –
2 | COC(=O)C1Oc2ccc(Cl)cc2C(C)(c2cccc(Cl)c2)O1 (single isomer, unassigned) [20 Isomer A] | ≤ 1000 mg/kg | – | – | – | -36% | -32% | -13% | – | – | – | –
3 | CN(C)CCOC(=O)C1Oc2ccc(Cl)cc2C(C)(c2ccccc2)O1 (single isomer, unassigned) [41 Isomer A] | ~200 mg/kg | – | – | – | – | – | – | -40% | -49% | -43% | –
4 | CC1(c2cccc(Cl)c2)OC(C(=O)O)Oc2ccc(Cl)cc21 (single isomer, unassigned) [21 Isomer A] | ~150 mg/kg | – | – | – | -11% | -25% | -62% | – | – | – | –
5 | CC1(c2ccccc2)OC(C(=O)O)Oc2ccc(Cl)cc21 (single isomer, unassigned) [17 Isomer A] | ~200 mg/kg | -43% | -47% | -57% | – | – | – | – | – | – | –
6 | CC1(c2ccccc2)OC(C(=O)O)Oc2ccc(Cl)cc21 (racemic) [Example 3, 6-chloro-4-methyl-4-phenyl-[4H]-1,3-benzodioxin-2-carboxylic acid] | – | -36% | -38% | -12% | – | – | – | – | – | – | 150 mg/kg
7 | CC1(c2ccccc2)OC(C(=O)O)Oc2ccc(Cl)cc21 (racemic) [Example 1, 6-chloro-4-methyl-4-phenyl-[4H]-1,3-benzodioxin-2-carboxylic acid] | 130 mg/kg | – | – | – | – | – | – | -22% | -26% | -11% | –
8 | CCOC(=O)C1Oc2ccc(Cl)cc2C(C)(c2ccccc2)O1 (single isomer, unassigned) [16 Isomer A] | ~800 mg/kg | -17% | -25% | -32% | – | – | – | – | – | – | –
